Measured values: the supplement of paper PMC10307832

Experiments:
Assay in all cases: relative viability (nuclei count vs DMSO), 5 days (fraction); higher = more cells survive
NCI-H1792 = test system: NCI-H1792
How it was run: (§1)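 Each reported value is a median over duplicate plates. It expresses relative viability: treated-well nuclei count divided by vehicle-well nuclei count. Lung cancer cell lines in 1536-well plates were dosed by pin tool a day after seeding, alone with one drug or with a fixed anchor-drug dose plus five library-drug doses (not always all listed) in √10 steps, and nuclei were counted after 5 days.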

PC-3 [JPC-3] = test system: PC-3 [JPC-3]
How it was run: as §1

SK-MES-1 = test system: SK-MES-1
How it was run: as §1

LK-2 = test system: LK-2
How it was run: as §1

NCI-H1944 = test system: NCI-H1944
How it was run: as §1

NCI-H596 = test system: NCI-H596
How it was run: as §1

COR-L 105 = test system: COR-L 105
How it was run: as §1

ChaGo-K-1 = test system: ChaGo-K-1
How it was run: as §1

NCI-H2170 = test system: NCI-H2170
How it was run: as §1

SW 900 = test system: SW 900
How it was run: as §1

H3255 = test system: H3255
How it was run: as §1

NCI-H520 = test system: NCI-H520
How it was run: as §1

NCI-H441 = test system: NCI-H441
How it was run: as §1

HCC-366 = test system: HCC-366
How it was run: as §1

NCI-H1975 = test system: NCI-H1975
How it was run: as §1

EMC-BAC-2 = test system: EMC-BAC-2
How it was run: as §1

NCI-H23 = test system: NCI-H23
How it was run: as §1

A-427 = test system: A-427
How it was run: as §1

NCI-H1666 = test system: NCI-H1666
How it was run: as §1

LOU-NH91 = test system: LOU-NH91
How it was run: as §1

EKVX = test system: EKVX
How it was run: as §1

NCI-H1755 = test system: NCI-H1755
How it was run: as §1

NCI-H1734 = test system: NCI-H1734
How it was run: as §1

## C[C@@H]1CN(CC(=O)Nc2ccc3c(c2)Cc2cccc(-c4cc(=O)cc(N5CCOCC5)o4)c2S3)C[C@H](C)O1 + Nc1ncn([C@H]2C[C@H](O)[C@@H](CO)O2)c(=O)n1 [Decitabine] (partner 2 µM)
NCI-H1792; first compound 0.04 µM
  relative viability: 0.627
NCI-H1792; first compound 0.1265 µM
  relative viability: 0.51
NCI-H1792; first compound 0.4 µM
  relative viability: 0.542
NCI-H1792; first compound 4 µM
  relative viability: 0.441
PC-3 [JPC-3]; first compound 0.04 µM
  relative viability: 0.789
PC-3 [JPC-3]; first compound 0.1265 µM
  relative viability: 0.841
PC-3 [JPC-3]; first compound 0.4 µM
  relative viability: 0.854
PC-3 [JPC-3]; first compound 4 µM
  relative viability: 0.781
SK-MES-1; first compound 0.04 µM
  relative viability: 0.356
SK-MES-1; first compound 0.1265 µM
  relative viability: 0.368
SK-MES-1; first compound 0.4 µM
  relative viability: 0.433
SK-MES-1; first compound 4 µM
  relative viability: 0.446
LK-2; first compound 0.04 µM
  relative viability: 0.258
LK-2; first compound 0.1265 µM
  relative viability: 0.279
LK-2; first compound 0.4 µM
  relative viability: 0.198
LK-2; first compound 4 µM
  relative viability: 0.257
NCI-H1944; first compound 0.1265 µM
  relative viability: 0.438
NCI-H1944; first compound 0.4 µM
  relative viability: 0.466
NCI-H1944; first compound 4 µM
  relative viability: 0.457
NCI-H596; first compound 0.04 µM
  relative viability: 1.01
NCI-H596; first compound 0.1265 µM
  relative viability: 1.11
NCI-H596; first compound 0.4 µM
  relative viability: 1.11
NCI-H596; first compound 4 µM
  relative viability: 0.798
COR-L 105; first compound 0.04 µM
  relative viability: 0.644
COR-L 105; first compound 0.1265 µM
  relative viability: 0.661
COR-L 105; first compound 0.4 µM
  relative viability: 0.723
COR-L 105; first compound 4 µM
  relative viability: 0.654
ChaGo-K-1; first compound 0.04 µM
  relative viability: 0.498
ChaGo-K-1; first compound 0.1265 µM
  relative viability: 0.531
ChaGo-K-1; first compound 0.4 µM
  relative viability: 0.56
ChaGo-K-1; first compound 4 µM
  relative viability: 0.455
NCI-H2170; first compound 0.04 µM
  relative viability: 0.492
NCI-H2170; first compound 0.1265 µM
  relative viability: 0.459
NCI-H2170; first compound 0.4 µM
  relative viability: 0.508
NCI-H2170; first compound 4 µM
  relative viability: 0.464
SW 900; first compound 0.04 µM
  relative viability: 0.453
SW 900; first compound 0.1265 µM
  relative viability: 0.427
SW 900; first compound 0.4 µM
  relative viability: 0.515
SW 900; first compound 4 µM
  relative viability: 0.43
H3255; first compound 0.04 µM
  relative viability: 0.682
H3255; first compound 0.1265 µM
  relative viability: 0.615
H3255; first compound 0.4 µM
  relative viability: 0.558
H3255; first compound 4 µM
  relative viability: 0.509
NCI-H520; first compound 0.04 µM
  relative viability: 0.613
NCI-H520; first compound 0.1265 µM
  relative viability: 0.484
NCI-H520; first compound 0.4 µM
  relative viability: 0.449
NCI-H520; first compound 4 µM
  relative viability: 0.488
NCI-H441; first compound 0.04 µM
  relative viability: 0.249
NCI-H441; first compound 0.1265 µM
  relative viability: 0.222
NCI-H441; first compound 0.4 µM
  relative viability: 0.29
NCI-H441; first compound 4 µM
  relative viability: 0.328
HCC-366; first compound 0.04 µM
  relative viability: 0.347
HCC-366; first compound 0.1265 µM
  relative viability: 0.348
HCC-366; first compound 0.4 µM
  relative viability: 0.326
HCC-366; first compound 4 µM
  relative viability: 0.326
NCI-H1975; first compound 0.04 µM
  relative viability: 0.412
NCI-H1975; first compound 0.1265 µM
  relative viability: 0.44
NCI-H1975; first compound 0.4 µM
  relative viability: 0.364
NCI-H1975; first compound 4 µM
  relative viability: 0.347
EMC-BAC-2; first compound 0.04 µM
  relative viability: 0.887
EMC-BAC-2; first compound 0.1265 µM
  relative viability: 1.05
EMC-BAC-2; first compound 0.4 µM
  relative viability: 0.948
EMC-BAC-2; first compound 4 µM
  relative viability: 0.827
NCI-H23; first compound 0.04 µM
  relative viability: 0.347
NCI-H23; first compound 0.1265 µM
  relative viability: 0.266
NCI-H23; first compound 0.4 µM
  relative viability: 0.296
NCI-H23; first compound 4 µM
  relative viability: 0.334
A-427; first compound 0.04 µM
  relative viability: 0.533
A-427; first compound 0.1265 µM
  relative viability: 0.605
A-427; first compound 0.4 µM
  relative viability: 0.562
A-427; first compound 4 µM
  relative viability: 0.587
NCI-H1666; first compound 0.04 µM
  relative viability: 0.744
NCI-H1666; first compound 0.1265 µM
  relative viability: 0.743
NCI-H1666; first compound 0.4 µM
  relative viability: 0.677
NCI-H1666; first compound 4 µM
  relative viability: 0.669
LOU-NH91; first compound 0.04 µM
  relative viability: 0.857
LOU-NH91; first compound 0.1265 µM
  relative viability: 0.819
LOU-NH91; first compound 0.4 µM
  relative viability: 0.81
LOU-NH91; first compound 4 µM
  relative viability: 0.749
EKVX; first compound 0.04 µM
  relative viability: 0.302
EKVX; first compound 0.1265 µM
  relative viability: 0.368
EKVX; first compound 0.4 µM
  relative viability: 0.303
EKVX; first compound 4 µM
  relative viability: 0.317
NCI-H1755; first compound 0.04 µM
  relative viability: 0.708
NCI-H1755; first compound 0.1265 µM
  relative viability: 0.737
NCI-H1755; first compound 0.4 µM
  relative viability: 0.77
NCI-H1755; first compound 4 µM
  relative viability: 0.796
NCI-H1734; first compound 0.04 µM
  relative viability: 0.567
NCI-H1734; first compound 0.1265 µM
  relative viability: 0.507
NCI-H1734; first compound 0.4 µM
  relative viability: 0.474
NCI-H1734; first compound 4 µM
  relative viability: 0.574
